The source of these data is paper PMC4416786, “Validation of a P-Glycoprotein (P-gp) Humanized Mouse Model by Integrating Selective Absolute Quantification of Human MDR1, Mouse Mdr1a and Mdr1b Protein Expressions with In Vivo Functional Analysis for Blood-Brain Barrier Transport” (PLoS ONE, 2015).

In data set [1] the target is T1, P-gp (Mus musculus, UniProt P21447). The following applies: C57BL/6 WT mice, oxycodone 1 mg/kg s.c., cyclosporine A 100 mg/kg i.p., verapamil 3 mg/kg s.c. or elacridar 6 mg/kg s.c. one hour before.
Source text: Brain and liver were sampled after sacrificing the animal.
(§1) The total brain concentration (ng/g brain tissue) of the substance was divided with the total plasma concentration (ng/ml) of the substance to obtain the tissue partition ratio (Kp), which was compared between the groups of mice. […] The the fraction unbound in plasma (fu, p) measured with equilibrium dialysis was used in the calculations.
The subject of data set [2] is human P-gp (hMDR1). The following applies: digoxin 1 mg/kg s.c.; blocker one hour before digoxin.
Source text: as §1
The test system of data set [3] is P-gp. Also noted: method as in PMID 16850390. To be noted: cited from earlier work.
The nature of data set [4]: Plasma protein binding by high throughput equilibrium dialysis. As to the method:
Equilibrium dialysis was performed to measure the plasma unbound fraction of the drugs studied, and to measure possible differences in the plasma protein binding between hMDR1 and C57BL/6 WT mice. A high throughput, 96 well equilibrium dialysis apparatus (Model HTD96b, HTDialysis, Connecticut, USA) with dialysis membrane strips with a molecular weight cut-off of 12–14 kDa was used. The concentrations of the substances were the same as those achieved in plasma during the in vivo experiments. One side of each well used was loaded with 125 μl of plasma spiked with drug and the other side was loaded with 125 μl phosphate buffer saline (PBS). The top surface of the Teflon block was then sealed with an adhesive film. […] Triplicates of the same concentration for each compound were measured. After the incubation period 80 μl from the buffer side was added into 80 μl of blank mouse plasma and 80 μl from the plasma was added into 80 μl of PBS. Samples were stored at -20 until analysis.

Data set [5] addresses T1, P-gp. Also noted: hMDR1 and C57BL/6 WT mice; from tissue; host or cells: blood-brain barrier (brain capillaries) of living male C57BL/6 WT mice; method as in PMID 7910522. The following applies: cited from earlier work.
For data set [6], the system named is P-gp. The following applies: rats; cited from earlier work.
The test system of data set [7] is P-gp. Also noted: method as in PMID 19047468. The following applies: PET imaging; cited from earlier work.
For data set [8], the target named is mouse P-gp (Mus musculus, UniProt P21447). Put plainly: in vivo. The following applies: C57BL/6, mouse.
In data set [9] the test system is human P-gp (hMDR1). To be noted: mouse, in vivo.
In data set [10] the target is T1, P-gp. To be noted: in vivo.
Procedure: Brain to plasma total concentration ratios (Kp) of the substances were measured for each animal. Unbound volume of distribution in brain (Vu, brain) was measured with the brain slice method [14] and fraction unbound in plasma (fu, p) was measured with high throughput equilibrium dialysis.
All the substances were administered subcutaneously except docetaxel, which was given intravenously in the tail vein as a slow injection over five minutes due to its tissue irritating character. […] The volume administered of all substances was 0.01 ml/g_body weight.
Blood was collected with a pre-heparinized syringe by cardiac puncture and was centrifuged for 5 minutes at 10000 rpm to obtain plasma. Brain was also sampled. The brain was divided in two equal parts and frozen on dry ice before weighed. All the samples were stored at -80°C until analysis.
as §1
For data set [11] the following is noted: C57BL/6, mouse, 5 h, 200 nM.
For data set [12], the system named is human P-gp (hMDR1). Put plainly: in vivo. To be noted: hMDR1 (MDR1 humanized), mouse.
Setting [13] is: hMDR1 (MDR1 humanized), mouse, plasma.

The structures appear in SMILES notation. Like-named read-outs stand apart in the source and are kept apart here.

T1 sequence (P21447 whole entry): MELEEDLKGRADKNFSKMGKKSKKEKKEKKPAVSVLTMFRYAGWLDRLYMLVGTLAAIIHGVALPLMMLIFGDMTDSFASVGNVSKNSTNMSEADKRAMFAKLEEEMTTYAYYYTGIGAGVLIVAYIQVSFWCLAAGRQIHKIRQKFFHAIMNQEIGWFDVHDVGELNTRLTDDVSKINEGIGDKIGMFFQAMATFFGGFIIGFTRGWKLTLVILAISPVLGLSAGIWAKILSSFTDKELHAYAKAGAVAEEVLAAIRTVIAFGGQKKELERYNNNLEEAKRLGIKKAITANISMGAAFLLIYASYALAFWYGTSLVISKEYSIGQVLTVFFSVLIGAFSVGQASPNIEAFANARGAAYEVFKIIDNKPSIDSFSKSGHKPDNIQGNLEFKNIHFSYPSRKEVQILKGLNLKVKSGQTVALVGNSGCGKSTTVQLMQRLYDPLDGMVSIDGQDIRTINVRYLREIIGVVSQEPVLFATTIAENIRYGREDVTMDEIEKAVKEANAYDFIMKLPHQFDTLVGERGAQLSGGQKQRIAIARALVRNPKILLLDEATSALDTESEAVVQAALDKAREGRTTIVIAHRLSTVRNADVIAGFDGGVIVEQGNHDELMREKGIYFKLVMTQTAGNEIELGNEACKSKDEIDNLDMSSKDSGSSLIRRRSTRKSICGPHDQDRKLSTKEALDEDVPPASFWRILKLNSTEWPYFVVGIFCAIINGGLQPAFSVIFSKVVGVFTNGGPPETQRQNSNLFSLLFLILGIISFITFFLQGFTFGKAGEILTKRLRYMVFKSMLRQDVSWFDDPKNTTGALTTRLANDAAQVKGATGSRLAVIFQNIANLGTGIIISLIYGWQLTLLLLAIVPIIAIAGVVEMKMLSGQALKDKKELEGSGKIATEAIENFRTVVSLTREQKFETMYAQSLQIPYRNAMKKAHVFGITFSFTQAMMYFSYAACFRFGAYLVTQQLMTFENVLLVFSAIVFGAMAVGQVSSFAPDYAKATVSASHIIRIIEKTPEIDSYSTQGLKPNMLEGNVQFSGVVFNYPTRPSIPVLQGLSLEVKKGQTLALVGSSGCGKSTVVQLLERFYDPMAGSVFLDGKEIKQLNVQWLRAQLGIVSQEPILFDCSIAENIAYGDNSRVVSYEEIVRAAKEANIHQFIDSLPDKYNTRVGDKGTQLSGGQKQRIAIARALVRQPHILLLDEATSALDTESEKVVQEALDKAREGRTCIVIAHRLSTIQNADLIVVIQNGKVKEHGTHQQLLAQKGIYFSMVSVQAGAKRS
mouse P-gp, sequence (P21447 whole entry): as above

As to `COc1cc2c(cc1OC)CN(CCc1ccc(NC(=O)c3cccc4c(=O)c5cccc(OC)c5[nH]c34)cc1)CC2` [Elacridar], the figures for the “Effect of the P-gp blocker on oxycodone Kp” value in data set [1] and in [1] (listed as elacridar (GF120918)) were “not changed” and “no effect”, respectively. Moreover, the “Digoxin Kp in hMDR1 mice compared to C57BL/6 WT controls when treated with the blocker” value in data set [2] was “significantly higher”. Besides, the “Blood concentration needed in guinea pigs to obtain the same inhibition as in rats and mice” value in data set [3] is “higher blood concentration”.

For orientation: fraction unbound means free concentration divided by total concentration. A high value points to weak binding. For the compound `COc1ccc2c3c1O[C@H]1C(=O)CC[C@@]4(O)[C@@H](C2)N(C)CC[C@]314` [Oxycodone], the free fraction (fraction unbound) stood at 0.681 in data set [4] (C57BL/6, mouse) and 0.681 in data set [4] (hMDR1 (MDR1 humanized), mouse).

With `C[C@H]1O[C@@H](O[C@H]2[C@@H](O)C[C@H](O[C@H]3[C@@H](O)C[C@H](O[C@H]4CC[C@@]5(C)[C@H](CC[C@@H]6[C@@H]5C[C@@H](O)[C@]5(C)[C@@H](C7=CC(=O)OC7)CC[C@]65O)C4)O[C@@H]3C)O[C@@H]2C)C[C@H](O)[C@@H]1O` [Digoxin], the unbound share (fraction unbound) in data set [4] (C57BL/6, mouse, plasma) is 0.594; in data set [4] (setting [13]), 0.607.

As for `CC[C@]1(O)C[C@@H]2CN(CCc3c([nH]c4ccccc34)[C@@](C(=O)OC)(c3cc4c(cc3OC)N(C)[C@H]3[C@@](O)(C(=O)OC)[C@H](OC(C)=O)[C@]5(CC)C=CCN6CC[C@]43[C@@H]65)C2)C1` [vinblastine], the “Sensitivity of Mdr1a(-/-) mice compared to wild type controls” value in [5] is 3 fold.

Turning to `C/C=C/C[C@@H](C)C(=O)[C@H]1C(=O)N[C@@H](C(C)C)C(=O)N(C)CC(=O)N(C)[C@@H](CC(C)C)C(=O)N[C@@H](C(C)C)C(=O)N(C)[C@@H](CC(C)C)C(=O)N[C@@H](C)C(=O)N[C@H](C)C(=O)N(C)[C@@H](CC(C)C)C(=O)N(C)[C@@H](CC(C)C)C(=O)N(C)[C@@H](C(C)C)C(=O)N1C` [PSC833], the “Effect of the P-gp blocker on the tail-flick latency of oxycodone” value in data set [6] is given as “no effect”.

`O=C(c1ccc([18F])cc1)C1CCN(CCn2c(=S)[nH]c3ccccc3c2=O)CC1` [[18F]altanserine]: in data set [7], the “Brain penetration in humans relative to rodents” value is given as 4.5 times.

For `C=C[C@H]1C[N@@]2CC[C@H]1C[C@@H]2[C@@H](O)c1ccnc2ccc(OC)cc12` [Quinidine, Quinidine gluconate], the “Digoxin Kp in hMDR1 mice compared to C57BL/6 WT controls when treated with the blocker” value in [2] is recorded as “significantly higher”.

Regarding `CC(=O)O[C@@]12CO[C@@H]1C[C@H](O)[C@@]1(C)C(=O)[C@H](O)C3=C(C)[C@@H](OC(=O)[C@H](O)[C@@H](NC(=O)OC(C)(C)C)c4ccccc4)C[C@@](O)([C@@H](OC(=O)c4ccccc4)[C@H]21)C3(C)C` [Docetaxel], the Kp uu at 1 h in [8] is 0.002; in data set [12], 0.003. Also, the “Kp in hMDR1 mice relative to C57BL/6 WT mice” value in data set [9] is recorded as 2 times. Moreover, the fraction unbound was determined as 0.053 in data set [4] (C57BL/6, mouse, plasma) and 0.052 in data set [4] (setting [13]). Further, in data set [10], the “Kp in Mdr1a/1b(-/-) mice relative to FVB WT controls” value came to 4 times. The “Vu, brain” value in [11] stood at 789 ml/g_brain. Further, the “Vu, brain (nonspecific binding to brain parenchymal tissue)” value in data set [11] was 789 ml*g_brain^-1.
